For test [1], the species on record is Rattus norvegicus. Put plainly: Activity at RYR2 receptor in rat cerebellar granule neurons assessed activation of [45Ca2+] uptake at 20 uM after 10 mins.
Test [2] is filed under the species Rattus norvegicus. Put plainly: Activity at RYR2 receptor in rat cerebellar granule neurons assessed as increase in intracellular calcium level at 20 uM. Format: cell-based. (In general: A change in cytosolic calcium serves as a functional read-out for many receptors and channels.)
Test [3] deals with Ryanodine receptor 1 (Homo sapiens, UniProt P21817). Put plainly: Binding affinity to RYR1 channels by calcium mobilization assay.

The source made the active and inactive calls. The rule behind the calls is not given here.

The IC50 is the concentration that gives 50% inhibition. The EC50 is the concentration that produces a half-maximal response.

Chain of Ryanodine receptor 1 (P21817 whole entry): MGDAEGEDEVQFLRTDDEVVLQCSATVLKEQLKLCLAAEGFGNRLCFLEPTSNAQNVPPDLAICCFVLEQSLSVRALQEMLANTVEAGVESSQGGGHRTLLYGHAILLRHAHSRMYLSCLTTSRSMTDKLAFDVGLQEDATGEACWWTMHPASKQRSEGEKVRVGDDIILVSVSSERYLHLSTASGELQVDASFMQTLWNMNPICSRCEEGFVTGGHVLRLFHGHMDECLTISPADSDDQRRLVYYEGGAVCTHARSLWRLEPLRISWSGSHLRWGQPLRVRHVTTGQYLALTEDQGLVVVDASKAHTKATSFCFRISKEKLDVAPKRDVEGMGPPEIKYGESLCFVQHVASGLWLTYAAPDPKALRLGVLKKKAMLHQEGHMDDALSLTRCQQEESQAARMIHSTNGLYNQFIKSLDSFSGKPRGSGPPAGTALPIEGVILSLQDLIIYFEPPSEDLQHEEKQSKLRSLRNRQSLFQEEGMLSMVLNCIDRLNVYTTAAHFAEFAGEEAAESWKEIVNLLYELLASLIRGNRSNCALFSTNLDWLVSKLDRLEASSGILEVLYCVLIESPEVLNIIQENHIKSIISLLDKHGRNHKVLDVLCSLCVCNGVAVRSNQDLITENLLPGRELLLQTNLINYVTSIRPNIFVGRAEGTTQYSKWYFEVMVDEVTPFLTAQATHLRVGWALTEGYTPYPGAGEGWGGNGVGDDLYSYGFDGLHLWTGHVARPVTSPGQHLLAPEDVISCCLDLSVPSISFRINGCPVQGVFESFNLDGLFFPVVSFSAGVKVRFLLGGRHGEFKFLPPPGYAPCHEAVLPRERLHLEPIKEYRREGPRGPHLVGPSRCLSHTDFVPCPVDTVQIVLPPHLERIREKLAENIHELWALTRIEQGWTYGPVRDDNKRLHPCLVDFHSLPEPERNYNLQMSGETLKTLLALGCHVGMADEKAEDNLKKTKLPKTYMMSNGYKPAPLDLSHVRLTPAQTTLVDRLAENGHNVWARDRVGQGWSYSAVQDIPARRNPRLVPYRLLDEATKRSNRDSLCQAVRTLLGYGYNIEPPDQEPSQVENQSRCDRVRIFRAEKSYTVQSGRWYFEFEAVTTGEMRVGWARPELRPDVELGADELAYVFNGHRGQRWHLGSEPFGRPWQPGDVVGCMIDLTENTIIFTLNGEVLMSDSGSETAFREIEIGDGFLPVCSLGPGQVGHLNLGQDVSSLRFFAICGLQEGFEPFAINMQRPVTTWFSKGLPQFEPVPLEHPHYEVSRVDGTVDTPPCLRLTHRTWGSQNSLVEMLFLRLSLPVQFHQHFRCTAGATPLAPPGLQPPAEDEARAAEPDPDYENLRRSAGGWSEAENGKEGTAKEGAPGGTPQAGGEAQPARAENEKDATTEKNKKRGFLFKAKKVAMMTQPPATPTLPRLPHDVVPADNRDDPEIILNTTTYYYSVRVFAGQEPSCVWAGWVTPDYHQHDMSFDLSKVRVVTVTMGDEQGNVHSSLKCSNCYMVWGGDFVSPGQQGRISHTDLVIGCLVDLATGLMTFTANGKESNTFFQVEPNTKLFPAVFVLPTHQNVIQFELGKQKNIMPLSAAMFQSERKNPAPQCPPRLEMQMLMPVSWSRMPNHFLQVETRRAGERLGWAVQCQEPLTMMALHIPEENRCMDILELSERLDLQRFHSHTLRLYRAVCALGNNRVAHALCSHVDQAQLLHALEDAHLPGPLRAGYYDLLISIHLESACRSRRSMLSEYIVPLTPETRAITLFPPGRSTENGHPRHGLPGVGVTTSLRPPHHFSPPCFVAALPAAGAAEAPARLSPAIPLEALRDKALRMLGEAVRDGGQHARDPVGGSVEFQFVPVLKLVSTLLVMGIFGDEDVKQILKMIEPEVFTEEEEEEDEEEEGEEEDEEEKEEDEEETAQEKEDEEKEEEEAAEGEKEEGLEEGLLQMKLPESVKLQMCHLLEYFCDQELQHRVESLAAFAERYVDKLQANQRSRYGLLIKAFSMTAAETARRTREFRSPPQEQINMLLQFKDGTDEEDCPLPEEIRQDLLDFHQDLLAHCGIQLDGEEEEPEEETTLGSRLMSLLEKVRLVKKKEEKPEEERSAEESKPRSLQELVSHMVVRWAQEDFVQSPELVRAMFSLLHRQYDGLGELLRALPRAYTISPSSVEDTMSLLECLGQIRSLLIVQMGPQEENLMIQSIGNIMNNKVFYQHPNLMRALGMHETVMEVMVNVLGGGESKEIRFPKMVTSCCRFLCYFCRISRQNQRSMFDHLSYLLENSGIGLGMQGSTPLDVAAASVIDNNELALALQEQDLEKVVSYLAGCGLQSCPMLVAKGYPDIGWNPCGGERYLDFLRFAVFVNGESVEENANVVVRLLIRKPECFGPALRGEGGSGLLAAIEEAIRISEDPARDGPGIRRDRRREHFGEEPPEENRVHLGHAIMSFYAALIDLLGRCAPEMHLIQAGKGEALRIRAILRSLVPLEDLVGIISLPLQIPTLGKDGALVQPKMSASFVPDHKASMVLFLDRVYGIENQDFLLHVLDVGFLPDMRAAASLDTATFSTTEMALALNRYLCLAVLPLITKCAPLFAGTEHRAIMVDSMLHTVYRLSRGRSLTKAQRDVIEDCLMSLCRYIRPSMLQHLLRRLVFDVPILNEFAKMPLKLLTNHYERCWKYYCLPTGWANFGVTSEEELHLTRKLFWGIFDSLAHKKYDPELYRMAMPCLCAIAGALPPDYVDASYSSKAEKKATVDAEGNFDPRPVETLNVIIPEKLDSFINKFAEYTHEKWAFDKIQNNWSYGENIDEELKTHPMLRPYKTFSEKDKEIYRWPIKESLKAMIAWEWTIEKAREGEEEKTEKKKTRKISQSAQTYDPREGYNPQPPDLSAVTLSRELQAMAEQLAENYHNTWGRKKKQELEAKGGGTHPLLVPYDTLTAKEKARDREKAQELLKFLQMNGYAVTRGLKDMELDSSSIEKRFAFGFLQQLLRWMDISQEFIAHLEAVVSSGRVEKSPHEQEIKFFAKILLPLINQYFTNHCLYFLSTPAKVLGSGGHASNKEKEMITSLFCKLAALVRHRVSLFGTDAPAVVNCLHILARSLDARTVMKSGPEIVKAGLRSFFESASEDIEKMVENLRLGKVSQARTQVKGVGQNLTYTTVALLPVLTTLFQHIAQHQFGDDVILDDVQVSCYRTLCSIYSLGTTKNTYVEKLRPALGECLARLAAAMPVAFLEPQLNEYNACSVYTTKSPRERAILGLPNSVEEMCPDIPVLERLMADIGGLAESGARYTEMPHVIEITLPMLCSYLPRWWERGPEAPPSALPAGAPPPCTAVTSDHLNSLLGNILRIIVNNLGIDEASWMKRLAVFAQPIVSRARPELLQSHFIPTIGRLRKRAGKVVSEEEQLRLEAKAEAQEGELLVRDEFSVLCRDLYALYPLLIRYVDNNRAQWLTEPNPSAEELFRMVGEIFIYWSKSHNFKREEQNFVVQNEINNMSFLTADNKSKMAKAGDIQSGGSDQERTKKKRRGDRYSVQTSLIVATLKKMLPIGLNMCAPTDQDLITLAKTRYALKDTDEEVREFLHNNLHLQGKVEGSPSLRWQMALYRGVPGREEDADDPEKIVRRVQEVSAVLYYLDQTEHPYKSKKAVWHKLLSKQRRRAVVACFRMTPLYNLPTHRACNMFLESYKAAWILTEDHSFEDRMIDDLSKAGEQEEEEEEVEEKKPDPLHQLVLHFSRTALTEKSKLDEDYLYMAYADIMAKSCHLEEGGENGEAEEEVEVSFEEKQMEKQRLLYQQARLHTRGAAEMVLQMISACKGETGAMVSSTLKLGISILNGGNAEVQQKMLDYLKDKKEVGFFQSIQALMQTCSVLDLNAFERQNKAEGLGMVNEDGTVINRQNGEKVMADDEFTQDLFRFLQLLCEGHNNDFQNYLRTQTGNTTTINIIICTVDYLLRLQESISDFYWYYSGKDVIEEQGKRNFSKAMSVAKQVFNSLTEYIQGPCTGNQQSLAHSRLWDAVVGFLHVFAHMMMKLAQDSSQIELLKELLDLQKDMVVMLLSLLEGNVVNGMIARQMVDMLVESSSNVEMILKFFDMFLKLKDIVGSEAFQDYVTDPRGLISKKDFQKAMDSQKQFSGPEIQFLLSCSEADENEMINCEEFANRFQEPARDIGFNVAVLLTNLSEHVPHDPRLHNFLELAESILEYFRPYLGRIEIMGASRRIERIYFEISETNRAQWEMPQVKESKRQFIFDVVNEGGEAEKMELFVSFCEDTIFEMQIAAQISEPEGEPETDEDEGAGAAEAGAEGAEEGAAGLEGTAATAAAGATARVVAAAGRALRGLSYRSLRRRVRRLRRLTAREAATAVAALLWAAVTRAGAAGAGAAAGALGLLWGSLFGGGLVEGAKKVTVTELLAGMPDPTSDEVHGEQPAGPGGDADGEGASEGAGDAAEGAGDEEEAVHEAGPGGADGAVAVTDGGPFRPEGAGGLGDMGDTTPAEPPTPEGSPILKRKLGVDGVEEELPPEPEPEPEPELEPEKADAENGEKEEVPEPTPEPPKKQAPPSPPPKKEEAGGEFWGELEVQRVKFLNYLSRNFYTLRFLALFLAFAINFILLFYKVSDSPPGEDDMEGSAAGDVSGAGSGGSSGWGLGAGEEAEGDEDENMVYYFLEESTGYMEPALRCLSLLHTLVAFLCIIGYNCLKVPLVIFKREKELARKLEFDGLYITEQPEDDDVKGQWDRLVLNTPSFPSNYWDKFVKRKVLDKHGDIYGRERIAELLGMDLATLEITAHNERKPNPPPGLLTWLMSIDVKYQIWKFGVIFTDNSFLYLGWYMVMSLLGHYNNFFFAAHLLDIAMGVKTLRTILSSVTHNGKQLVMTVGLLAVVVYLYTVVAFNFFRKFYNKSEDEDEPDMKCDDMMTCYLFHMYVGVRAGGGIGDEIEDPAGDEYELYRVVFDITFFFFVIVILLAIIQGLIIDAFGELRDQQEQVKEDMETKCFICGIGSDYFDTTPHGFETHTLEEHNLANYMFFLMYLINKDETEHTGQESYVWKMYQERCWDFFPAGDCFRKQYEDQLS

For `CCCCNC(=O)/C(Cc1cc(Br)c(Oc2cc(C/C(=N\O)C(=O)NCCCC)cc(Br)c2O)c(Br)c1)=N/O`, the result in test [1] and in test [2] was Active.

For `O=C1NCCc2cc(Br)c(O)c(c2)Oc2ccc(cc2Br)CCNC(=O)/C(=N\O)Cc2cc(Br)c(O)c(c2)Oc2c(Br)cc(cc2Br)C/C1=N/O`, the outcome in test [1] and in test [2] was Active.

Consider `O=C1CCNC(=O)CCc2ccc(c(Br)c2)Oc2cc(cc(Br)c2O)CCN1`, for which the IC50 in test [3] was found to be 6 µM.

With `O=C(NCCc1cc(Br)c(Oc2cc(NC(=O)c3ccccc3)ccc2O)c(Br)c1)c1ccccc1`, the result in test [2] was inactive.

As for `O=C1CCc2ccc(c(Br)c2)Oc2cc(cc(Br)c2O)CCN1`, the EC50 in test [3] worked out at 11 µM.

The values are drawn from ChEMBL document CHEMBL1143439, “Open-chain half-bastadins mimic the effects of cyclic bastadins on calcium homeostasis in cultured neurons” (Bioorg Med Chem Lett, 2008).
